Test results taken from patent publication US11787805B2, “N-oxide inhibitors of NLRP3 inflammasome” (BioAge Labs, Inc., priority 2022, dated 2023).

assay: Human Liver Microsome Stability Assay (HLM); format: in vitro ADME; settings: human liver microsomes
Description: The stability of the N-oxide compounds provided herein was studied compared to analogs not having N-oxide. […] This enhanced metabolic stability corresponds to an extended half-life and duration of action when dosed in vivo.

HLM t1/2 [min]	SMILES
3.7	CCOc1cc(C(=O)N(C)Cc2cncc3cn[nH]c23)ccc1-c1cccc(F)c1 [A]

same assay, conditions: human, liver microsomes, read-out: HLM t1/2

half-life [min]	SMILES
2	CCOc1cc(C(=O)N(C)Cc2cncc3cn[nH]c23)ccc1-c1cccc(F)c1 [B]
4	CN(Cc1cncc2cn[nH]c12)C(=O)c1ccc(-c2cccc(F)c2)c(OC2CC2)c1 [C]
> 145	CCOc1cc(C(=O)N(C)Cc2c[n+]([O-])cc3cn[nH]c23)ccc1-c1cccc(F)c1 [Compound 001]
> 145	CN(Cc1c[n+]([O-])cc2cn[nH]c12)C(=O)c1ccc(-c2cccc(F)c2)c(OC2CC2)c1 [Compound 004]
1.5	CN(Cc1cccc2cn[nH]c12)C(=O)c1ccc(-c2cccc(F)c2)c(OC2CC2)c1 [D]
